Source: patent US4593104A, “2-halo-N-(azole-1-yl-methyl)-substituted acetanilides” (BASF Aktiengesellschaft, priority 1976, dated 1986)

Key:
Assay in all cases: preemergence treatment in the greenhouse, % damage
[1] = test system: Gossyp. hirs.; type: in vivo, Gosspyium hirsutum
From the text: (§1) The vessels employed were plastic flowerpots having a volume of 300 cm^3; the substrate was a sandy loam containing about 1.5% humus. The seeds of the test plants (see Table 1) were sown shallow, and separated according to species. In the case of Cyperus esculentus, pregerminated tubers were planted. In the preemergence treatment, the active ingredients were then immediately applied to the surface of the soil. They were suspended or emulsified in water as the vehicle, and sprayed through atomizing nozzles. After the agents had been applied, the vessels were lightly sprinkler-irrigated to set germination and growth going, and to activate the chemical agents. The vessels were then covered with transparent plastic hoods until the plants had taken root. This cover ensured uniform germination of the test plants (to the extent that this was not impaired by the chemicals), and prevented readily volatile substances from evaporating.
(§2) For postemergence treatment, the plants were first grown to a height of from 3 to 10 cm, depending on their habit, before treated. Hoods were not placed on the pots. The experiments were set up in the greenhouse, hotter areas (25° to 40° C.) being preferred for heat-loving species, and 15° to 30° C. for plants from moderate climates. The experiments were carried out for from 4 to 6 weeks. During this period the plants were tended and their reaction to the various treatments was assessed. The following tables contain the substances investigated, the application rates in kg/ha of active ingredient, and the test plant species. Assessments were made on a 0 to 100 scale, 0 denoting no damage or normal emergence, and 100 denoting no emergence or complete destruction of at least the visible plant parts.

[2] = test system: Glyc. max; type: in vivo, Glycine max
From the text: as §1, §2

[3] = test system: Stell. med.; type: in vivo
From the text: as §1, §2

[4] = test system: Amar. retro.; type: in vivo
From the text: as §1, §2

[5] = test system: Cyp. diff.; type: in vivo
From the text: as §1, §2

[6] = test system: Alopec. myosur.; type: in vivo
From the text: as §1, §2

[7] = test system: Euph. gen.; type: in vivo
From the text: as §1, §2

[8] = test system: Echin. c.g.; type: in vivo
From the text: as §1, §2

[9] = test system: Setaria spp.; type: in vivo
From the text: as §1, §2

[10] = test system: Matric. spp.; type: in vivo
From the text: as §1, §2

[11] = test system: Sorgh. halep.; type: in vivo
From the text: as §1, §2

[12] = test system: Sorgh. bicol.; type: in vivo, Sorghum bicolor
From the text: as §1, §2

[13] = test system: Beta vulg.; type: in vivo, Beta vulgaris
From the text: as §1, §2

[14] = test system: Zea mays; type: in vivo
From the text: as §1, §2

[15] = test system: Bromus spp.; type: in vivo
From the text: as §1, §2

[16] = test system: Cyper. escul.; type: in vivo, Cyperus esculentus
From the text: as §1, §2

[17] = test system: Solanum nigrum; type: in vivo
From the text: as §1, §2

Row | SMILES | % damage ([1]; 0.5 kg/ha) [%] | % damage ([1]; 1.0 kg/ha) [%] | % damage ([2]; 0.5 kg/ha) [%] | % damage ([2]; 1.0 kg/ha) [%] | % damage ([4]; 0.5 kg/ha) [%] | % damage ([4]; 1.0 kg/ha) [%] | % damage ([6]; 0.5 kg/ha) [%] | % damage ([6]; 1.0 kg/ha) [%] | % damage ([7]; 0.5 kg/ha) [%] | % damage ([7]; 1.0 kg/ha) [%] | % damage ([8]; 0.5 kg/ha) [%] | % damage ([8]; 1.0 kg/ha) [%] | % damage ([9]; 0.5 kg/ha) [%] | % damage ([9]; 1.0 kg/ha) [%] | % damage ([12]; 2.0 kg/ha) [%] | % damage ([13]; 2.0 kg/ha) [%] | % damage ([2]; 2.0 kg/ha) [%] | % damage ([14]; 2.0 kg/ha) [%] | % damage ([4]; 2.0 kg/ha) [%] | % damage ([9]; 2.0 kg/ha) [%] | further results
1 | Cc1ccc(C)c(N(Cn2cccn2)C(=O)CCl)c1C [Compound 14] | 0 | 15 | 10 | 20 | 100 | 100 | 100 | 100 | 95 | 95 | 100 | 100 | 100 | 100 |  |  |  |  |  |  | % damage ([1]; 0.25 kg/ha): 0%; % damage ([2]; 0.25 kg/ha): 10%; % damage ([3]; 0.25 kg/ha): 90%; % damage ([3]; 0.5 kg/ha): 100%; % damage ([3]; 1.0 kg/ha): 100%; % damage ([4]; 0.25 kg/ha): 100%; % damage ([5]; 0.25 kg/ha): 100%; % damage ([5]; 0.5 kg/ha): 100%; % damage ([5]; 1.0 kg/ha): 100%; % damage ([6]; 0.25 kg/ha): 95%; % damage ([7]; 0.25 kg/ha): 80%; % damage ([8]; 0.25 kg/ha): 100%; % damage ([9]; 0.25 kg/ha): 100%; % damage ([10]; 0.25 kg/ha): 80%; % damage ([10]; 0.5 kg/ha): 100%; % damage ([10]; 1.0 kg/ha): 100%; % damage ([11]; 0.25 kg/ha): 95%; % damage ([11]; 0.5 kg/ha): 95%; % damage ([11]; 1.0 kg/ha): 100%
2 | Cc1ccc(Cl)cc1N(Cn1cccn1)C(=O)CCl [Compound 24] |  |  |  |  |  |  |  |  |  |  |  |  |  |  | 10 | 60 | 10 | 0 | 95 | 85 | % damage ([6]; 2.0 kg/ha): 100%
3 | Cc1cc(C)n(CN(C(=O)CCl)c2ccccc2)n1 [Compound 34] |  |  |  | 0 |  | 100 |  |  |  |  |  | 90 |  | 80 | 10 |  | 0 | 0 | 100 | 95 | % damage ([12]; 1.0 kg/ha): 0%; % damage ([14]; 1.0 kg/ha): 0%; % damage ([8]; 2.0 kg/ha): 90%; % damage ([15]; 1.0 kg/ha): 95%; % damage ([15]; 2.0 kg/ha): 95%
4 | Cc1cc(C)n(CN(C(=O)CCl)c2c(C)ccc(C)c2C)n1 [Compound 47] | 0 | 0 | 20 | 30 | 100 | 100 | 100 | 100 | 10 | 20 | 95 | 100 | 100 | 100 |  |  |  |  |  |  | % damage ([1]; 0.25 kg/ha): 0%; % damage ([2]; 0.25 kg/ha): 20%; % damage ([3]; 0.25 kg/ha): 30%; % damage ([3]; 0.5 kg/ha): 80%; % damage ([3]; 1.0 kg/ha): 100%; % damage ([4]; 0.25 kg/ha): 100%; % damage ([5]; 0.25 kg/ha): 100%; % damage ([5]; 0.5 kg/ha): 100%; % damage ([5]; 1.0 kg/ha): 100%; % damage ([6]; 0.25 kg/ha): 95%; % damage ([7]; 0.25 kg/ha): 10%; % damage ([8]; 0.25 kg/ha): 95%; % damage ([9]; 0.25 kg/ha): 100%; % damage ([10]; 0.25 kg/ha): 80%; % damage ([10]; 0.5 kg/ha): 90%; % damage ([10]; 1.0 kg/ha): 100%; % damage ([11]; 0.25 kg/ha): 85%; % damage ([11]; 0.5 kg/ha): 90%; % damage ([11]; 1.0 kg/ha): 95%
5 | CCc1ccccc1N(Cn1ccc(C)n1)C(=O)CCl [Compound 69] |  |  | 20 |  | 95 |  | 100 |  |  |  |  |  | 80 |  |  |  |  |  |  |  | % damage ([12]; 0.5 kg/ha): 10%; % damage ([13]; 0.5 kg/ha): 20%; % damage ([14]; 0.5 kg/ha): 0%
6 | Cc1ccn(CN(C(=O)CCl)c2ccccc2C(C)C)n1 [Compound 72] |  |  |  | 10 |  | 95 |  | 100 |  |  |  |  |  | 90 | 40 | 10 | 20 | 10 | 95 | 95 | % damage ([12]; 1.0 kg/ha): 20%; % damage ([13]; 1.0 kg/ha): 10%; % damage ([14]; 1.0 kg/ha): 0%; % damage ([6]; 2.0 kg/ha): 100%
7 | Cc1cccc(C)c1N(Cn1nc(C)c(Cl)c1C)C(=O)CCl [Compound 106] |  |  |  | 10 |  | 95 |  | 100 |  |  |  |  |  | 90 | 70 | 10 | 10 | 50 | 95 | 95 | % damage ([12]; 1.0 kg/ha): 70%; % damage ([13]; 1.0 kg/ha): 10%; % damage ([14]; 1.0 kg/ha): 15%; % damage ([6]; 2.0 kg/ha): 100%
8 | CCc1cccc(C)c1N(Cn1nc(C)c(Cl)c1C)C(=O)CCl [Compound 107] |  |  |  |  |  |  |  |  |  |  |  |  |  |  | 85 | 0 | 0 | 0 | 95 | 95 | % damage ([6]; 2.0 kg/ha): 95%
9 | CCc1cccc(CC)c1N(Cn1cncn1)C(=O)CCl [Compound 130] | 20 | 30 | 20 | 20 | 95 | 100 |  |  | 60 | 60 | 95 | 100 | 85 | 95 |  |  | 20 |  | 100 | 100 | % damage ([1]; 2.0 kg/ha): 30%; % damage ([16]; 0.5 kg/ha): 40%; % damage ([16]; 1.0 kg/ha): 70%; % damage ([16]; 2.0 kg/ha): 80%; % damage ([17]; 0.5 kg/ha): 100%; % damage ([17]; 1.0 kg/ha): 100%; % damage ([17]; 2.0 kg/ha): 100%; % damage ([7]; 2.0 kg/ha): 100%; % damage ([8]; 2.0 kg/ha): 100%
10 | Cc1ccc(C)c(N(Cn2cncn2)C(=O)CCl)c1C [Compound 136] | 10 | 10 |  |  | 70 | 70 | 50 | 90 | 45 | 65 | 95 | 95 | 90 | 100 |  |  |  |  |  |  | % damage ([3]; 0.5 kg/ha): 30%; % damage ([3]; 1.0 kg/ha): 80%; % damage ([5]; 0.5 kg/ha): 90%; % damage ([5]; 1.0 kg/ha): 90%; % damage ([10]; 0.5 kg/ha): 50%; % damage ([10]; 1.0 kg/ha): 90%; % damage ([11]; 0.5 kg/ha): 80%; % damage ([11]; 1.0 kg/ha): 80%
